Molecules are shown by their SMILES. Values joined by “and” are separate entries in the source; they are usually repeats but may differ in a detail not shown here. Equal values may be shown once. Read-outs that look alike come from different tables or passages of the source. Bounds are passed on as bounds.

For data set [1] the following is noted: cited from earlier work.
For data set [2] the following is noted: cited from earlier work; for peak 1,25-dihydroxyvitamin D serum concentration: healthy volunteers.
Data set [3] relates to breast cancer, prostate cancer or leukemia. Nature of the data set: Example 4: patients with breast cancer, prostate cancer or leukemia. It is filed as in vivo, human. As to conditions: oral 100 mg/square meter with oral IRESSA.
For data set [4], the system named is advanced head and neck cancer. Description: Example 5: patients with advanced head and neck cancer. It counts as in vivo, human. As to conditions: oral 100 mg/square meter with oral IRESSA or intravenous C-225. The text has this: Current systemic chemotherapy regimens are unable to prolong survival of patients with advanced head and neck cancer.
In data set [5] the test system is retinoid receptor subtype. As to conditions: competition with all-trans RA; cited from earlier work.
Data set [6] has as its system lung cancer. Description: Example 6: patients with lung cancer. It is filed as in vivo, human. As to conditions: oral 100 mg/square meter with oral IRESSA.
For data set [7], the system named is lung cancer. Description: Example 7: lung cancer patients with disease progression on IRESSA alone. As to conditions: added to IRESSA, oral 100 mg/square meter, optionally calcitriol 0.1-1 mcg per day. It is filed as in vivo, human.
The subject of data set [8] is F9 embryonal mouse teratocarcinoma cells. To be noted: all-trans RA-treated, differentiating F9 cells, 18 hour period; cited from earlier work.
The test system of another data set is ER+ or ER− tumor lines. To be noted: cited from earlier work.
Another data set concerns Xenopus laevis. To be noted: Xenopus laevis system; cited from earlier work.
Data set [9] has as its system cutaneous T-cell lymphoma. As to conditions: single patient, oral, with the VD analog calcitriol; cited from earlier work.
The next data set has as its system small cell lung cancer. Nature of the data set: Example 8: small cell lung cancer patients with disease progression on IRESSA alone. It counts as in vivo, human. As to conditions: added to IRESSA about 250-500 mg per day; oral about 100 to 500 mg per day.
Another data set relates to colorectal cancer. To be noted: cited from earlier work.
Data set [10] has as its system non small cell lung cancer. Description: Example 2: patient with non small cell lung cancer. It counts as in vivo, human. On the procedure:
A patient suffering from non small cell lung cancer was treated with IRESSA® (250 mg per day) for two months. The disease progressed during the treatment and thae patient was continued on IRESSA® (250 mg per day) with daily dosage of 4-oxo-retinol (75 mg per day) for two months. The disease became stable and the patient continued taking IRESSA® (250 mg per day) for 4 more months without 4-oxo-retinol with a stale disease.

In data set [11] the test system is refractory/progressive lung cancer. To be noted: single agent; cited from earlier work.
[12] abbreviates: 4 mcg per day for 4 days, postmenopausal women.
Setting [13] is: up to 2.7 mcg/day for 7 to 15 days, normal volunteers.
Where [14] appears, read: up to 32 mcg/day for 3 months, patients with osteopetrosis.
The mark [15] stands for this setting: tumors capable of producing 4-oxo-retinol.
Setting [16] is: tumors that don't produce 4-oxo-retinol.

For `C=C1/C(=C\C=C2/CCC[C@]3(C)[C@@H]([C@H](C)CCCC(C)(C)O)CC[C@@H]23)C[C@@H](O)C[C@@H]1O` [calcitriol], in [1] (setting [12]), the hypercalcemia result is given as “no clinically significant hypercalcemia”, the “patients with serum calcium above 10.8” value is given as “Four of the 27”, the urinary calcium excretion result is “increased” and the urinary hydroxyproline excretion entry is on record as “no increase”. The “dose tolerated without hypercalcemia” value in data set [1] (given intermittently) was not above 0.48 µg/kg. Moreover, in data set [1] (in vivo), the “duration of hypercalcemic effect” value was 3 to 5 days and the “time of maximal hypercalcemic effect” value was 10 h. Moreover, the serum calcium entry in [1] (single oral dose of 4 mcg, healthy volunteers) is recorded as “no elevation”. Besides, in [1] (setting [13]), the “calcium absorption and excretion” value is given as “increased”; the serum calcium entry is “no significant elevations”. Besides, the “patients with elevation in serum calcium” value in data set [1] (up to 3 mcg/day for 6-12 days, low calcium diet) is “None of the patients”. Also, the hypercalcemia result in data set [1] (setting [14]) is given as “no hypercalcemia”. Also, in data set [2] (2 mcg single oral dose), the “peak 1,25-dihydroxyvitamin D serum concentration” value was 0.235 nM and 0.351 nM. In [2] (in vivo), the serum half life was 3 to 6 h and the “time to peak serum concentration” value was 2 h. Further, the “peak 1,25-dihydroxyvitamin D serum concentration” value in data set [2] (single oral dose of 4 mcg) is on record as 0.42 nM. Also, the “stable 1,25-dihydroxyvitamin D serum levels” value in [2] (up to 3 mcg/day for 6-12 days, normal volunteers) is 0.184 to 0.235 nM. Further, in data set [2] (setting [14]), the “peak of stable serum levels of 1,25-dihydroxyvitamin D” value is on record as 2.32 nM.

Consider `CC1=C(/C=C/C(C)=C/C=C/C(C)=C/CO)C(C)(C)CCC1O` (centres unmarked) [4-hydroxy-retinol], for which the “tumor burden versus IRESSA alone” value (in data set [3]; in the data set on lung cancer [6]) was “reduced tumor burden” throughout. Also, the “survival rate versus IRESSA or C-225 alone” value in [4] is reported as “better survival rate”. Besides, the “displacement of all-trans RA” value in data set [5] is on record as “Neither compound efficiently displaced all-trans RA”. Moreover, in the data set with lung cancer [7], the tumor burden result is on record as “reduced tumor burden”.

Take `CC1=C(/C=C/C(C)=C/C=C/C(C)=C/CO)C(C)(C)CCC1` [retinol, Retinol]: in data set [8], the “share of total retinol metabolized to 4-hydroxy-retinol and then 4-oxo-retinol” value is listed as 10-15%.

`CC1=C(/C=C/C(C)=C/C=C/C(C)=C/C(=O)Nc2ccc(O)cc2)C(C)(C)CCC1` [N-(4-hydroxyphenyl)retinamide]: the growth inhibition result with ER+ or ER− tumor lines (setting [15]) is “growth inhibitory”; in the data set with ER+ or ER− tumor lines (setting [16]), “lack growth inhibitory effects”.

For the molecule `CC1=C(/C=C/C(C)=C/C=C/C(C)=C/C(=O)O)C(C)(C)CCC1` [all-trans RA, all-trans-retinoic acid], the “ED50, teratogenicity” value in the data set with Xenopus laevis is given as approximately 100 nM. The growth inhibition result is reported as “growth inhibitory” in the data set on ER+ or ER− tumor lines (setting [15]) and “lack growth inhibitory effects” in the data set with ER+ or ER− tumor lines (setting [16]).

In the case of `COc1cc(C)c(/C=C/C(C)=C/C=C/C(C)=C/C(=O)O)c(C)c1C` [acitretin], the clinical response entry in data set [9] is “complete remission”.

In the case of `C=C(c1ccc(C(=O)O)cc1)c1cc2c(cc1C)C(C)(C)CCC2(C)C` [bexarotene], the disease course entry with small cell lung cancer is on record as “stable disease or a reduced tumor burden”.

With `CCc1c2c(nc3ccc(OC(=O)N4CCC(N5CCCCC5)CC4)cc13)-c1cc3c(c(=O)n1C2)COC(=O)[C@]3(O)CC` [IRITONECAN®], the single-agent activity result in the data set on colorectal cancer is recorded as “significant single-agent activity”.

Turning to `COc1cc2ncnc(Nc3ccc(F)c(Cl)c3)c2cc1OCCCN1CCOCC1` [IRESSA®, gefitinib], the disease course result in data set [10] (250 mg per day alone for two months) is reported as “progressed”; in data set [10] (250 mg per day for 4 more months without 4-oxo-retinol), “stale disease”. The “overall rate of response” value in data set [11] is reported as 10-15%.

(Values after patent US20060281813A1, “Methods of treating hyperproliferative cell disorders” (priority 2003, published 2006).)
